Patent US9029336B2, “Xenobiotic related induction of gene expression” (The University of Sydney, priority 1998, dated 2015)

Target: T1, hPXR (Homo sapiens, UniProt O75469)
T1 sequence (O75469 1-434): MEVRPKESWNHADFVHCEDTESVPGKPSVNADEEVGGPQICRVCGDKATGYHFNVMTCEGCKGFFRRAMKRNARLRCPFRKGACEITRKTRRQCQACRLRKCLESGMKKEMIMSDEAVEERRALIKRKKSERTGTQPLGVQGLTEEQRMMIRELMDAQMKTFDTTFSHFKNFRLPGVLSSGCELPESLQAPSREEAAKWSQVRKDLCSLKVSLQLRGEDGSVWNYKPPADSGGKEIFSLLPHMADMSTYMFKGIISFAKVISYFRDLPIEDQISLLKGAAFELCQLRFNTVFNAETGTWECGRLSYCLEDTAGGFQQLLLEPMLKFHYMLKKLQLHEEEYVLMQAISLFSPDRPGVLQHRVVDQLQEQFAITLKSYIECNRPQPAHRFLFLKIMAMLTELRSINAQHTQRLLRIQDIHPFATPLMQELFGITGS
Experiment: CYP3A4 XREM reporter construct cotransfected with hPXR expression vector (pSG-hPXR) in HepG2 cells
Details: FIG. 4; for action on the XREM via the hPXR: HepG2, XREM reporter + hPXR expression vector
From the text: The present inventors cotransfected a CYP3A4 5′-flanking region construct, containing the XREM and linked to a luciferase reporter, into HepG2 cells either with or without a hPXR expression construct (pSG-hPXR).
Many drugs induce the transcription of the CYP3A4 gene.

Row | SMILES | action on the XREM via the hPXR | induction of the XREM construct (HepG2 cells transfected with XREM reporter)
1 | Clc1ccccc1C(c1ccccc1)(c1ccccc1)n1ccnc1 [clotrimazole] | act on the XREM via the hPXR | induced the XREM construct in a manner analogous to that that occurs in vivo
2 | CCC1(c2ccccc2)C(=O)NC(=O)NC1=O [phenobarbitone] | act on the XREM via the hPXR | 
